Data taken from US4563463A, “2-Oxo-1,3-oxazolo[4,5-h] quinolines useful as anti-allergy agents” (priority 1984, dated 1986).
Read-outs that look alike come from different tables or passages of the source.

Legend:
[1] = test system: passively sensitized Rat Mast Cells; test: Rat Mast Cell (RMC) test: inhibition of histamine release from passively sensitized Rat Mast Cells; format: cell-based; conditions: for IC50: Mast cell, histamine release, passively sensitized rat mast cells, read-out: I50 value in the RMC test; for RMC % inh.: at 50 μm (number in parentheses)
From the text: In addition, the compounds of this invention have potent activity as inhibitors of histamine release from passively sensitized Rat Mast Cells according to the porcedure described by E. Kusner, et al., Journal of Pharmacology and Experimental Therapeutics, 184, 41 (1973).

[2] = test system: Rat Passive Cutaneous Anaphylaxis; test: Rat Passive Cutaneous Anaphylaxis (PCA) Screen: inhibition of wheal formation; format: in vivo; conditions: for ED50: Rattus norvegicus; for inhibition of wheal formation in the PCA test: 10 mg/kg, intraperitoneal
From the text: The compounds of this invention have potent activity in inhibiting the formation of a wheel when screened according to the Rat Passive Cutaneous Anaphylaxis (PCA) Screen as described by I. Mota, Life Sciences, 7, 465 (1963) and Z. Ovary, et al. Proceedings of Society of Experimental Biology and Medicine, 81, 584 (1952).

[3] = PO, 25 mg/kg (number in parentheses)
[4] = PO, 125 mg/kg (number in parentheses)

Q: How did the IC50 [1] turn out when `COC(=O)c1nc2cc(Cl)c3cccnc3c2o1` [Example 1C, 2-Carbomethoxy-5-chloro-1,3-oxazolo-[4,5-h]quinoline] was run?
A: Its IC50 is 0.3 µM.

Q: What about the ED50 ([2]; ip, intraperitoneal route, read-out: E50 value in PCA test) of the same compound?
A: Its ED50 is 0.5 mg/kg.

Q: And the ED50 ([2]; oral route, read-out: E50 value in PCA test)?
A: Its ED50 is 1 mg/kg.

Q: `CCOC(=O)c1nc2cc(Cl)c3cccnc3c2o1` [Example 4, 2-carboethoxy-5-chloro-1,3-oxazolo-[4,5-h]quinoline] was tested. Which IC50 [1] did it give?
A: Its IC50 is 0.1 µM.

Q: And the “inhibition of wheal formation in the PCA test” value [2]?
A: The value was 59%.

Q: Which results are given for `O=C([O-])c1nc2cc(Cl)c3cccnc3c2o1.[Na+]` [Example 14, 5-chloro-1,3-oxazolo-[4,5-h]quinoline-2-carboxylate, sodium salt]?
A: IC50 [1]: 0.1 µM; inhibition of wheal formation in the PCA test [2]: 51%

Q: Which RMC % inh. [1] does the source give for `O=c1[nH]c2ccc3cccnc3c2o1` [Example 18, 2-Oxo-3H-oxazolo[4,5-h]quinoline] here?
A: The RMC % inh. was < 30%.

Q: And the ED50 ([2]; IP, Table I, read-out: PCA ED50 IP)?
A: Its ED50 is 10 mg/kg.

Q: What about the ED50 ([2]; PO, Table I, read-out: PCA ED50 PO) of the same compound?
A: Its ED50 is 4 mg/kg.

Q: For `O=c1[nH]c2cc(Cl)c3cccnc3c2o1` [Example 19], which “PCA % inh. PO” value [2, 3] is on record?
A: The value was 0%.

Q: Which RMC % inh. [1] does the source give for `CC(=O)n1c(=O)oc2c3ncccc3ccc21` [Example 20, 3-Acetyl-2-oxo-3H-oxazolo[4,5-h]quinoline] here?
A: Its RMC % inh. is 18%.

Q: And the “PCA % inh. PO” value [2, 4]?
A: Its value is 14%.

Q: How did the “PCA % inh. PO” value ([2]; PO, 100 mg/kg (number in parentheses)) turn out when `COc1cccc(C(=O)n2c(=O)oc3c4ncccc4c(Cl)cc32)c1` [Example 22] was run?
A: The value was 43%.

Q: How did the RMC % inh. [1] turn out when `CC(C(=O)n1c(=O)oc2c3ncccc3c(Cl)cc21)c1ccccc1` (centres unmarked) [Example 23] was run?
A: The RMC % inh. was 16%.

Q: And the “PCA % inh. IP” value ([2]; IP, 125 mg/kg (number in parentheses))?
A: Its value is 34%.

Q: With `CN(C)C(=O)n1c(=O)oc2c3ncccc3c(Cl)cc21` [Example 24] as the compound, how does the RMC % inh. [1] read?
A: The RMC % inh. was 18%.

Q: What about the “PCA % inh. PO” value [2, 3] of the same compound?
A: Its value is 0%.

Q: Which RMC % inh. [1] does the source give for `Cn1c(=O)oc2c3ncccc3c(Cl)cc21` [Example 25, 5-Chloro-3-methyl-2-oxo-3H-oxazolo[4,5-h]quinoline] here?
A: Its RMC % inh. is 0%.

Q: What about the “PCA % inh. PO” value [2, 4] of the same compound?
A: The value was 51%.
